From patent US12180226B2, “Spirotricycle RIPK1 inhibitors and methods of uses thereof” (Merck Sharp & Dohme LLC, priority 2021, dated 2024) come the findings set out here.

As a reminder, the pEC50 is −log10 of the EC50, conventionally taken in molar units.

pEC50: −log10 of the molar value. Where a name gives a salt, the structure may show the parent alone.

The test deals with RIPK1 (recombinant GST-RIPK1 kinase domain, residues 1-327) (Homo sapiens (Human), UniProt Q13546). Description: RIPK1-ADP-Glo Enzymatic Assay. The format is biochemical. The conditions noted are these: ADP-Glo; 25 nM GST-RIPK1, 300 μM ATP; assay lower limit ~25 nM; read-out: RIPK1 V0 Ec50. The protocol: RIPK1-ADP-Glo Enzymatic Assay
RIPK1 (recombinant GST-RIPK1 kinase domain, residues 1-327), sequence (Q13546 1-327): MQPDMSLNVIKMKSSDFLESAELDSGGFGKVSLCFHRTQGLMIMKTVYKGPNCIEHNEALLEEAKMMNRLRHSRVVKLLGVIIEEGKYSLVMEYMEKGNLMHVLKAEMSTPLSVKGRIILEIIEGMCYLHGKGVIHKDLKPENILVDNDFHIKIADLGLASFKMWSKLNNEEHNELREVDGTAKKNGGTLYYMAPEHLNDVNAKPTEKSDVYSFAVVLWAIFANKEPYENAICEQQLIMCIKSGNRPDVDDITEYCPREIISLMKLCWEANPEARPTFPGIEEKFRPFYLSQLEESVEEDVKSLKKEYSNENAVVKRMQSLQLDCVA
The enzymatic activity of RIPK1 is measured using an assay derived from ADP-Glo kit (TMPromega), which provides a luminescent-based ADP detection system. Specifically, the ADP generated by RIPK1 kinase is proportionally detected as luminescent signals in a homogenous fashion. In this context, the assessment of the inhibitory effect of small molecules (EC50) is measured by the effectiveness of the compounds to inhibit the ATP to ADP conversion by RIPK1.
In this assay, the potency (EC50) of each compound was determined from a ten-point (1:3 serial dilution; top compound concentration of 100000 nM) titration curve using the following outlined procedure. The assay bottom or lower limit of confidence is ˜25 nM. To each well of a white ProxiPlus 384 well-plate, 30 nL of compound (1% DMSO in final assay volume of 3 μL) was dispensed, followed by the addition of 2 μL of 1×assay buffer (25 mM Hepes 7.3, 20 mM MgCl2, 50 mM NaCl, 1 mM DTT, 0.005% Tween20, and 0.02% BSA) containing 37.5 nM of GST-RIPK1 (recombinant GST-RIPK1 kinase domain (residues 1-327) enzyme produced from baculovirus-transfected Sf21 cells: MW=62 kDa). Plates were placed in an ambient temperature humidified chamber for a 30-minute pre-incubation with compound. Subsequently, each reaction was initiated by the addition of 1 μL 1×assay buffer containing 900 μM ATP and […] dephosphorylated-MBP substrate. The final reaction in each well of 3 μL consists of 25 nM of GST-RIPK1, 300 μM ATP, and 3 μM dephosphorylated-MBP. Kinase reactions were allowed to proceed for 150 minutes prior to adding ADP-Glo reagents per Promega's outlined kit protocol. Dose-response curves were generated by plotting percent effect (% product conversion; Y-axis) vs. Log10 compound concentrations (X-axis). EC50 values were calculated using a non-linear regression, four-parameters sigmoidal dose-response model.
For the compound `Cc1ccccc1CN1CCC2(CC1)O[C@@H]1CC[C@@H](c3cc(F)cc(F)c3)N1C2=O` [Example 22.5, (5′S,7a′R)-5′-(3,5-difluorophenyl)-1-[(2-methylphenyl)methyl] tetrahydro-3′H-spiro[piperidine-4,2′-pyrrolo[2,1-b][1,3]oxazol]-3′-one], the negative logarithm of the EC50 (pEC50) is 6.67.
Then `O=C(c1ccc(C(F)F)nc1)N1CCC2(CC1)O[C@@H]1CC[C@@H](c3cc(F)cc(F)c3)N1C2=O` [Example 6.66, (5′S,7a′R)-1-[6-(difluoromethyl)pyr-idine-3-carbonyl]-5′-(3,5-difluorophenyl)-tetrahydro-3′H-spiro [piperidine-4,2′-pyrrolo[2,1-b][1,3]-oxazol]-3′-one], with 6.51.
In the case of `O=C(c1ccoc1)N1CCC2(CC1)O[C@@H]1CC[C@@H](c3ccccc3)N1C2=O` [Example 6.145, (5′S,7a′R)-1-(furan-3-carbonyl)-5′-phenyl-tetrahydro-3′H-spiro [piperidine-4,2′-pyrrolo[2,1-b][1,3]oxazol]-3′-one], the negative-log EC50 (pEC50) was more than 7.60.
Then `COc1ccc([C@@H]2CC[C@H]3OC4(CCN(C(=O)c5ccccc5)CC4)C(=O)N32)cc1` [Example 17.8, (5′S,7a′R)-1-benzoyl-5′-(4-methoxyphenyl)tetrahydro-3′H-spiro[piperidine-4,2′-pyrrolo[2,1-b]oxazol]-3′-one], with 7.31; and `O=C1N2[C@@H](CC[C@H]2c2ccccc2)OC12CCN(c1cc(-c3cnn(C(F)F)c3)ncn1)CC2` [Example 10.2, (5′S,7a′R)-1-{6-[1-(difluoromethyl)-1H-pyrazol-4-yl]pyrimidin-4-yl}-5′-phenyltetrahydro-3′H-spiro[piperidine-4,2′-pyrrolo[2,1-b][1,3]oxazol]-3′-one], with more than 7.60.
Turning to `CS(=O)(=O)C1CN(C(=O)c2nc(N3CCC4(CC3)O[C@@H]3CC[C@@H](c5cc(F)cc(F)c5)N3C4=O)ncc2F)C1` [Example 7.9, (5′S,7a′R)-5′-(3,5-difluorophenyl)-1-{5-fluoro-4-[3-(methylsulfonyl)azetidine-1-carbonyl]pyrimidin-2-yl}tetrahydro-3′H-spiro[piperidine-4,2′-pyrrolo[2,1-b][1,3]oxazol]-3′-one], the pEC50 was 7.14.
Turning to `N#Cc1cncc(N2CCC3(CC2)O[C@@H]2CC[C@@H](c4ccccc4)N2C3=O)n1` [Example 4.7, 6-[(5′S,7a′R)-3′-oxo-5′-phenyltetrahydro-1H,3′H-spiro[piperidine-4,2′-pyrrolo[2,1-b] [1,3]oxazol]-1-yl]pyrazine-2-carbonitrile], the negative logarithm of the EC50 (pEC50) was 6.95.
Then `NC(=O)c1ccc(N2CCC3(CC2)O[C@@H]2CC[C@@H](c4ccccc4)N2C3=O)nc1Cl` [Example 4.201, 2-chloro-6-[(5′S,7a′R)-3′-oxo-5′-phenyltetrahydro-1H,3′H-spiro[piperidine-4,2′-pyrrolo[2,1-b] [1,3]oxazol]-1-yl]pyridine-3-carboxamide], with more than 7.60.
Then `O=C1CCc2c1cccc2C(=O)N1CCC2(CC1)O[C@@H]1CC[C@@H](c3cc(F)cc(F)c3)N1C2=O` [Example 5.28, (5′S,7a′R)-5′-(3,5-difluoro-phenyl)-1-(1-oxo-2,3-dihydro-1H-indene-4-carbonyl)tetrahydro-3′H-spiro[piperidine-4,2′-pyrrolo[2,1-b]oxazol]-3′-one], with 6.68; and `COC(=O)c1c(C)cc(N2CCC3(CC2)O[C@@H]2CC[C@@H](c4ccccc4)N2C3=O)nc1C#N` [Example 4.192, methyl 2-cyano-4-methyl-6-[(5′S,7a′R)-3′-oxo-5′-phenyltetrahydro-1H,3′H-spiro[piperidine-4,2′-pyrrolo[2,1-b] [1,3]oxazol]-1-yl] pyridine-3-carboxylate], with 7.26.
Under `O=C1N2[C@@H](CC[C@H]2c2ccccc2)OC12CCN(c1ncnc3c1COC3)CC2` [Example 4.222, (5′S,7a′R)-1-(5,7-dihydrofuro[3,4-d]pyrimidin-4-yl)-5′-phenyltetrahydro-3′H-spiro[piperidine-4,2′-pyrrolo[2,1-b] [1,3]oxazol]-3′-one] stands 7.24.
As to `Cc1cccc(CN2CCC3(CC2)O[C@@H]2CC[C@@H](c4cc(F)cc(F)c4)N2C3=O)c1` [Example 22.4, (5′S,7a′R)-5′-(3,5-difluorophenyl)-1-[(3-methylphenyl)methyl] tetrahydro-3′H-spiro[piperidine-4,2′-pyrrolo[2,1-b][1,3]oxazol]-3′-one], the pEC50 was 6.15.
Under `O=C1N2[C@@H](CC[C@H]2c2ccccc2F)OC12CN(c1ccnc(-c3ccc(F)cc3)c1)C2` [Example 4.139, (5′S,7a′R)-5′-(2-fluorophenyl)-1-[2-(4-fluorophenyl)pyridin-4-yl]tetrahydro-3′H-spiro[azetidine-3,2′-pyrrolo[2,1-b] [1,3]oxazol]-3′-one] stands more than 7.60; under `Cc1nc(N2CCC3(CC2)C[C@@H]2OC[C@@H](c4ccccc4)N2C3=O)ccc1C#N` [Example 4.78, 2-methyl-6-[(3′R,7a′S)-5′-oxo-3′-phenyltetrahydro-1H,5′H-spiro[piperidine-4,6′-pyrrolo[2,1-b] [1,3]oxazol]-1-yl]pyridine-3-carbonitrile], 7.23; under `Cc1c(Br)ccnc1C(=O)N1CCC2(CC1)O[C@@H]1CC[C@@H](c3cc(F)cc(F)c3)N1C2=O` [Example 6.80, (5′S,7a′R)-1-(4-bromo-3-methylpyridine-2-carbonyl)-5′-(3,5-difluorophenyl)tetra-hydro-3′H-spiro [piperidine-4,2′-pyrrolo[2,1-b][1,3]-oxazol]-3′-one], 6.82.
Then `O=C(c1nc2cnccc2s1)N1CCC2(CC1)O[C@@H]1CC[C@@H](c3cc(F)cc(F)c3)N1C2=O` [Example 6.44, (5′S,7a′R)-5′-(3,5-difluorophenyl)-1-([1,3]thiazolo[4,5-c]pyridine-2-carbonyl) tetrahydro-3′H-spiro [piperidine-4,2′-pyrrolo[2,1-b][1,3]oxazol]-3′-one], with 7.17; and `O=C1N2[C@@H](CC[C@H]2C2CCCC2)OC12CCN(c1ccnc3c(F)cnn13)CC2` [Example 4.88, (5′S,7a′R)-5′-cyclopentyl-1-(3-fluoropyrazolo [1,5-a]pyrimidin-7-yl)tetrahydro-3′H-spiro[piperidine-4,2′-pyrrolo[2,1-b]oxazol]-3′-one, TFA salt], with more than 7.60; and `O=C1N2[C@@H](CC[C@H]2c2cc(F)cc(F)c2)OC12CCN(c1nccn3cncc13)CC2` [Example 13.14, (5′S,7a′R)-5′-(3,5-difluorophenyl)-1-(imidazo[1,5-a]pyrazin-8-yl)tetrahydro-3′H-spiro[piperidine-4,2′-pyrrolo[2,1-b]oxazol]-3′-one, TFA salt], with 6.31.
On to `Cc1ocnc1C(=O)N1CCC2(CC1)O[C@@H]1CC[C@@H](c3cccc(F)c3)N1C2=O` [Example 6.128, (5′S,7a′R)-5′-(3-fluorophenyl)-1-(5-methyl-1,3-oxazole-4-carbonyl)tetrahydro-3′H-spiro[piperidine-4,2′-pyrrolo[2,1-b] [1,3]oxazol]-3′-one], for which the pEC50 was 7.37.
As for `O=C1N2[C@@H](CC[C@H]2c2cc(F)cc(F)c2)OC12CCN(c1nnc3cccnn13)CC2` [Example 13.9, (5′S,7a′R)-1-([1,2,4]triazolo[4,3-b]pyridazin-3-yl)-5′-(3,5-difluorophenyl)tetrahydro-3′H-spiro[piperidine-4,2′-pyrrolo[2,1-b]oxazol]-3′-one, TFA salt], the pEC50 is 6.47.
Under `O=C1N2[C@@H](CC[C@H]2c2cc(F)cc(F)c2)OC12CN(c1ccnc3c(F)cnn13)C2` [Example 4.117, (5′S,7a′R)-5′-(3,5-difluorophenyl)-1-(3-fluoropyrazolo[1,5-a]pyrimidin-7-yl)tetrahydro-3′H-spiro[azetidine-3,2′-pyrrolo[2,1-b]oxazol]-3′-one] stands more than 7.60; under `CCOc1cccc(C(=O)N2CCC3(CC2)O[C@@H]2CC[C@@H](c4cccc(F)c4)N2C3=O)c1` [Example 6.121, (5′S,7a′R)-1-(3-ethoxy-benzene-1-carbonyl)-5′-(3-fluorophenyl)-tetrahydro-3′H-spiro [piperidine-4,2′-pyrrolo[2,1-b][1,3]oxazol]-3′-one], more than 7.60.
Then `O=C1N2[C@@H](CC[C@H]2c2ccccc2F)OC12CN(c1ccnc(Cl)c1)C2` [Example 4.109, (5′S,7a′R)-1-(2-chloropyridin-4-yl)-5′-(2-fluorophenyl)tetrahydro-3′H-spiro[azetidine-3,2′-pyrrolo[2,1-b]oxazol]-3′-one], with 7.42.
